Test results published in the supplement of paper PMC10307832.

Compound: CC[C@@H]1C(=O)N(C)c2cnc(Nc3ccc(C(=O)NC4CCN(C)CC4)cc3OC)nc2N1C1CCCC1 [BI-2536] + C[C@@H](Oc1cc(-c2cnn(C3CCNCC3)c2)cnc1N)c1c(Cl)ccc(F)c1Cl [Crizotinib] (partner 1 µM)
Assay: relative viability (nuclei count vs DMSO), 5 days (fraction); higher = more cells survive
Conditions: first compound 1 µM
Method in brief: (§1)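 Relative viability is defined as nuclei in treated wells over nuclei in vehicle wells. Duplicate plates were run and medians reported. Lung cancer cell lines in 1536-well plates were dosed by pin tool one day after seeding, with one drug or with a fixed anchor-drug dose plus five library-drug doses (not always all listed) in √10 steps, and nuclei were counted after 5 days.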

Going from NCI-H2087 to SK-MES-1, the relative viability rises from 0.139 to 0.18.

Going from H3255 to COR-L23, the relative viability falls from 0.24 to 0.0912.

First: COR-L 105
Second: IA-LM
The relative viability of the first is higher: 0.264 for the first, 0.058 for the second.

Going from LOU-NH91 to ChaGo-K-1, the relative viability falls from 0.307 to 0.303.

Compared with NCI-H2170, A549 is lower in relative viability: 0.288 for the first, 0.0294 for the second.

Going from NCI-H1299 to CAL-12T, the relative viability falls from 0.224 to 0.155.

First: NCI-H2228
Second: NCI-H1563
The relative viability of the first is lower: 0.172 for the first, 0.561 for the second.

First: NCI-H1944
Second: ABC-1
The relative viability of the first is lower: 0.147 for the first, 0.214 for the second.

NCI-H358 was tested, and the relative viability was 0.139.

Compound: CC1CC(=O)N(C2=CN=C(N=C2N1C3CCCC3)NC4=C(C=C(C=C4)C(=O)NC5CCN(CC5)C)OC)C [NPK76-II-72-1] + CC(C)C[C@H](NC(=O)[C@H](Cc1ccccc1)NC(=O)c1cnccn1)B(O)O [Bortezomib] (partner 0.002 µM)
Assay: as above
Conditions: first compound 0.01 µM
Method in brief: as §1

First: NCI-H727
Second: NCI-H1650
The relative viability of the first is higher: 0.881 for the first, 0.211 for the second.

Compared with EBC-1, NCI-H1703 is lower in relative viability: 0.543 for the first, 0.255 for the second.

Compared with NCI-H1993, SW 1573 is higher in relative viability: 1 for the first, 1.13 for the second.

Going from NCI-H838 to LCLC-103H, the relative viability rises from 0.768 to 1.03.

Compared with NCI-H520, NCI-H2126 is higher in relative viability: 0.731 for the first, 1.01 for the second.

Going from EMC-BAC-2 to NCI-H2085, the relative viability falls from 1.06 to 1.05.

Compared with Calu-6, HCC-366 is lower in relative viability: 0.992 for the first, 0.952 for the second.

Compared with NCI-H1666, NCI-H596 is lower in relative viability: 0.9 for the first, 0.838 for the second.

First: NCI-H2087
Second: H3255
The relative viability of the first is higher: 0.941 for the first, 0.841 for the second.

First: COR-L23
Second: COR-L 105
The relative viability of the first is higher: 0.942 for the first, 0.699 for the second.

Compared with IA-LM, LOU-NH91 is lower in relative viability: 0.738 for the first, 0.488 for the second.

Compared with ChaGo-K-1, NCI-H1299 is higher in relative viability: 0.988 for the first, 0.994 for the second.

First: CAL-12T
Second: NCI-H2228
The relative viability of the first is higher: 0.874 for the first, 0.799 for the second.

First: NCI-H1563
Second: ABC-1
The relative viability of the first is higher: 0.883 for the first, 0.272 for the second.

Same assay, conditions: first compound 0.03162 µM

Going from NCI-H727 to NCI-H1650, the relative viability falls from 0.981 to 0.191.

First: EBC-1
Second: NCI-H1703
The relative viability of the first is higher: 0.63 for the first, 0.316 for the second.

Going from NCI-H1993 to SW 1573, the relative viability falls from 1.09 to 1.04.

Compared with NCI-H838, LCLC-103H is higher in relative viability: 0.885 for the first, 1.02 for the second.

First: NCI-H520
Second: NCI-H2126
The relative viability of the first is lower: 0.766 for the first, 1.16 for the second.

First: EMC-BAC-2
Second: NCI-H2085
The relative viability of the first is higher: 1.15 for the first, 1.01 for the second.

First: Calu-6
Second: HCC-366
The relative viability of the first is lower: 1.03 for the first, 1.1 for the second.

Going from NCI-H1666 to NCI-H2087, the relative viability rises from 0.801 to 0.861.

Going from H3255 to COR-L23, the relative viability rises from 0.642 to 1.

Compared with COR-L 105, IA-LM is lower in relative viability: 0.982 for the first, 0.798 for the second.

Compared with LOU-NH91, ChaGo-K-1 is higher in relative viability: 0.483 for the first, 0.945 for the second.

Going from NCI-H1299 to CAL-12T, the relative viability falls from 1.07 to 0.832.

Compared with NCI-H2228, NCI-H1563 is higher in relative viability: 0.81 for the first, 0.861 for the second.

With ABC-1 the relative viability was 0.306.

Same assay, conditions: first compound 0.1 µM

Going from NCI-H727 to NCI-H1650, the relative viability falls from 0.938 to 0.183.

Going from EBC-1 to NCI-H1703, the relative viability falls from 0.608 to 0.323.

First: NCI-H1993
Second: SW 1573
The relative viability of the first is lower: 0.775 for the first, 0.822 for the second.

First: NCI-H838
Second: LCLC-103H
The relative viability of the first is lower: 0.988 for the first, 0.994 for the second.

Compared with NCI-H520, NCI-H2126 is higher in relative viability: 0.385 for the first, 1.11 for the second.

Compared with EMC-BAC-2, NCI-H2085 is higher in relative viability: 0.951 for the first, 0.977 for the second.

Going from Calu-6 to HCC-366, the relative viability falls from 1.16 to 1.03.

First: NCI-H1666
Second: NCI-H596
The relative viability of the first is lower: 0.73 for the first, 0.999 for the second.

Going from NCI-H2087 to H3255, the relative viability rises from 0.63 to 0.647.

Going from COR-L23 to COR-L 105, the relative viability falls from 0.889 to 0.848.

First: IA-LM
Second: LOU-NH91
The relative viability of the first is higher: 0.871 for the first, 0.463 for the second.

Going from ChaGo-K-1 to NCI-H1299, the relative viability rises from 0.994 to 1.02.

First: CAL-12T
Second: NCI-H2228
The relative viability of the first is lower: 0.872 for the first, 0.935 for the second.

Compared with NCI-H1563, ABC-1 is lower in relative viability: 0.712 for the first, 0.299 for the second.

Same assay, conditions: first compound 0.3162 µM

First: NCI-H727
Second: NCI-H1650
The relative viability of the first is higher: 0.9 for the first, 0.218 for the second.

Compared with EBC-1, NCI-H1703 is lower in relative viability: 0.562 for the first, 0.318 for the second.

Compared with NCI-H1993, SW 1573 is higher in relative viability: 0.729 for the first, 1.04 for the second.

Going from NCI-H838 to LCLC-103H, the relative viability rises from 0.771 to 0.984.

Going from NCI-H520 to NCI-H2126, the relative viability rises from 0.514 to 1.07.

Going from EMC-BAC-2 to NCI-H2085, the relative viability falls from 1.01 to 0.953.

Compared with Calu-6, HCC-366 is higher in relative viability: 0.894 for the first, 0.94 for the second.

First: NCI-H1666
Second: NCI-H596
The relative viability of the first is lower: 0.647 for the first, 1 for the second.

Compared with NCI-H2087, COR-L23 is higher in relative viability: 0.737 for the first, 0.961 for the second.

First: COR-L 105
Second: IA-LM
The relative viability of the first is lower: 0.672 for the first, 0.933 for the second.

Going from LOU-NH91 to ChaGo-K-1, the relative viability rises from 0.432 to 0.744.

Compared with NCI-H1299, NCI-H2228 is lower in relative viability: 1.02 for the first, 0.942 for the second.

Going from NCI-H1563 to ABC-1, the relative viability falls from 0.883 to 0.254.

Same assay, conditions: first compound 1 µM

Going from NCI-H727 to NCI-H1650, the relative viability falls from 0.869 to 0.211.

Going from EBC-1 to NCI-H1703, the relative viability falls from 0.713 to 0.348.

Compared with NCI-H1993, SW 1573 is higher in relative viability: 0.873 for the first, 1.27 for the second.

First: NCI-H838
Second: LCLC-103H
The relative viability of the first is lower: 0.715 for the first, 1.09 for the second.

Going from NCI-H520 to NCI-H2126, the relative viability rises from 0.544 to 1.16.

First: EMC-BAC-2
Second: NCI-H2085
The relative viability of the first is higher: 1.12 for the first, 1.02 for the second.

Compared with Calu-6, HCC-366 is lower in relative viability: 1.06 for the first, 0.99 for the second.

Going from NCI-H1666 to NCI-H596, the relative viability falls from 1.03 to 0.966.

Compared with NCI-H2087, H3255 is higher in relative viability: 0.82 for the first, 1.11 for the second.

Going from COR-L23 to COR-L 105, the relative viability rises from 0.99 to 1.12.

First: IA-LM
Second: LOU-NH91
The relative viability of the first is higher: 0.857 for the first, 0.35 for the second.

Compared with ChaGo-K-1, NCI-H1299 is lower in relative viability: 1.01 for the first, 1 for the second.

Going from CAL-12T to NCI-H2228, the relative viability rises from 1.01 to 1.31.

Compared with NCI-H1563, ABC-1 is lower in relative viability: 0.879 for the first, 0.358 for the second.
